According to patent US11061034B2, “Blood biomarker for use in evaluation of effect of drug therapy on kidney cancer” (PUBLIC UNIVERSITY CORPORATION YOKOHAMA CITY UNIVERSITY, priority 2015, dated 2021):

Tested on: kidney cancer
Assay: Kidney cancer activity by FDG PET/CT during mTOR inhibitor therapy
Format: in vivo, human
Protocol: A change in blood PARK7 concentration was observed during treatment in four patients with kidney cancer who began to receive administration of mTOR inhibitor. The blood PARK7 concentration was measured as a concentration of plasma PARK7 with the commercially available ELISA kit in the same manner as in 1, described above, and the change in blood PARK7 level was evaluated by comparing values detected by a luminometer. The therapeutic effect of the mTOR inhibitor was clinically evaluated by FDG PET/CT. Kidney cancer progression was evaluated by FDG PET/CT, in parallel with the measurement of blood PARK7 concentration. FDG is an agent composed of glucose and a positron-emitting nuclide introduced thereto, and it has almost the same behavior in the body as glucose. […] The SUVmax values indicated below the respective images are semi-quantified values of FDG accumulation.

CO[C@H]1C[C@@H]2CC[C@@H](C)[C@@](O)(O2)C(=O)C(=O)N2CCCC[C@H]2C(=O)O[C@H]([C@H](C)C[C@@H]2CC[C@@H](OC(=O)C(C)(CO)CO)[C@H](OC)C2)CC(=O)[C@H](C)/C=C(\C)[C@@H](O)[C@@H](OC)C(=O)[C@H](C)C[C@H](C)/C=C/C=C/C=C/1C [Temsirolimus]
accumulation of FDG (PET/CT) (patient with kidney cancer, Case No. 4 (one case)): no change in accumulation of FDG | accumulation of FDG (PET/CT) (patients with kidney cancer, Case Nos. 1 to 3 (three cases)): decreased accumulation of FDG
